In PubChem BioAssay (NCI):
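Five concentrations, 48 hours, 96-well plates. Abbreviation: GI50, concentration required for 50% inhibition of growth. TGI: total growth inhibition.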

What was measured:
Experiment in all cases: NCI tumour cell line growth inhibition, 48 h
NCI-H23 lung = test system: NCI-H23 lung
NCI-H460 lung = test system: NCI-H460 lung
NCI-H522 lung = test system: NCI-H522 lung
NCI/ADR-RES ovarian = test system: NCI/ADR-RES ovarian
OVCAR-3 ovarian = test system: OVCAR-3 ovarian
OVCAR-4 ovarian = test system: OVCAR-4 ovarian
OVCAR-5 ovarian = test system: OVCAR-5 ovarian
OVCAR-8 ovarian = test system: OVCAR-8 ovarian
PC-3 prostate = test system: PC-3 prostate
RPMI-8226 leukemia = test system: RPMI-8226 leukemia
RXF 393 renal = test system: RXF 393 renal
SF-268 CNS = test system: SF-268 CNS
SF-295 CNS = test system: SF-295 CNS
SF-539 CNS = test system: SF-539 CNS
SK-MEL-2 melanoma = test system: SK-MEL-2 melanoma
SK-MEL-28 melanoma = test system: SK-MEL-28 melanoma
SK-MEL-5 melanoma = test system: SK-MEL-5 melanoma
SK-OV-3 ovarian = test system: SK-OV-3 ovarian
SN12C renal = test system: SN12C renal
SNB-19 CNS = test system: SNB-19 CNS
SNB-75 CNS = test system: SNB-75 CNS
SR leukemia = test system: SR leukemia
SW-620 colon = test system: SW-620 colon
T-47D breast = test system: T-47D breast
TK-10 renal = test system: TK-10 renal
U251 CNS = test system: U251 CNS
UACC-257 melanoma = test system: UACC-257 melanoma
UACC-62 melanoma = test system: UACC-62 melanoma
UO-31 renal = test system: UO-31 renal

Structure (SMILES): CC(C)C(=O)Nc1ccc(-c2nc(-c3cccc(O)c3)c(-c3ccnc(Br)c3)[nH]2)cc1
- GI50 (NCI-H23 lung): 1190 nM
- TGI (NCI-H23 lung): 12900 nM
- GI50 (NCI-H460 lung): 1450 nM
- TGI (NCI-H460 lung): 9010 nM
- GI50 (NCI-H522 lung): 1240 nM
- TGI (NCI-H522 lung): 9030 nM
- GI50 (NCI/ADR-RES ovarian): 18000 nM
- TGI (NCI/ADR-RES ovarian): > 100000 nM
- GI50 (OVCAR-3 ovarian): 1090 nM
- TGI (OVCAR-3 ovarian): 6600 nM
- GI50 (OVCAR-4 ovarian): 2850 nM
- TGI (OVCAR-4 ovarian): 27700 nM
- GI50 (OVCAR-5 ovarian): 2360 nM
- TGI (OVCAR-5 ovarian): 59100 nM
- GI50 (OVCAR-8 ovarian): 1280 nM
- TGI (OVCAR-8 ovarian): 18600 nM
- GI50 (PC-3 prostate): 877 nM
- TGI (PC-3 prostate): 8210 nM
- GI50 (RPMI-8226 leukemia): 830 nM
- TGI (RPMI-8226 leukemia): 2430 nM
- GI50 (RXF 393 renal): 370 nM
- TGI (RXF 393 renal): 1320 nM
- GI50 (SF-268 CNS): 2830 nM
- TGI (SF-268 CNS): 40000 nM
- GI50 (SF-295 CNS): 204 nM
- TGI (SF-295 CNS): 457 nM
- GI50 (SF-539 CNS): 685 nM
- TGI (SF-539 CNS): 2890 nM
- GI50 (SK-MEL-2 melanoma): 1640 nM
- TGI (SK-MEL-2 melanoma): 9810 nM
- GI50 (SK-MEL-28 melanoma): 1750 nM
- TGI (SK-MEL-28 melanoma): 23500 nM
- GI50 (SK-MEL-5 melanoma): 1100 nM
- TGI (SK-MEL-5 melanoma): 3240 nM
- GI50 (SK-OV-3 ovarian): 1890 nM
- TGI (SK-OV-3 ovarian): 10600 nM
- GI50 (SN12C renal): 1490 nM
- TGI (SN12C renal): 34800 nM
- GI50 (SNB-19 CNS): 1470 nM
- TGI (SNB-19 CNS): 61200 nM
- GI50 (SNB-75 CNS): 529 nM
- TGI (SNB-75 CNS): 2600 nM
- GI50 (SR leukemia): 1190 nM
- TGI (SR leukemia): > 100000 nM
- GI50 (SW-620 colon): 1400 nM
- TGI (SW-620 colon): 16200 nM
- GI50 (T-47D breast): 1090 nM
- TGI (T-47D breast): 9590 nM
- GI50 (TK-10 renal): 5880 nM
- TGI (TK-10 renal): 36800 nM
- GI50 (U251 CNS): 1100 nM
- TGI (U251 CNS): 47900 nM
- GI50 (UACC-257 melanoma): 3470 nM
- TGI (UACC-257 melanoma): 24200 nM
- GI50 (UACC-62 melanoma): 758 nM
- TGI (UACC-62 melanoma): 5370 nM
- GI50 (UO-31 renal): 1040 nM
- TGI (UO-31 renal): 4590 nM
